System: rats
Format: in vivo, rat
Settings: positive control; versus mean on baseline days
Protocol: The standard test in rat to measure anxiolytic effect (Geller conflict procedure) was designed by Geller and Seifter and modified by Pollard and Howard (Geller & Seifter, Psychophamracologia 1:482-492 (1960: Pollard & Howard, Psychopharmacology 62:117-121 (1979)). The anxiety-reducing effect of a KCNQ2/3 channel opener was measured using the Geller conflict procedure in rats. Rats are trained to press a lever to receive food pellets during daily 1 hour sessions. The sessions are divided into punished and unpunished phases. During the four, three-minute punished periods, a light signals that each lever press will produce both a pellet and a foot shock (punishment), which reduces lever pressing. The number of punished lever presses on test days (when test compound is administered) is compared to the mean on baseline days. […]

In the case of CNC1=Nc2ccc(Cl)cc2C(c2ccccc2)=[N+]([O-])C1 [chlordiazepoxide], the “increase in punished lever pressing” value is reported as over 50%.
